From the supplement of paper PMC4862054 come the findings set out here.

Settings in all cases: 72 h
The test system of experiment [1] is CAL-120. The method, boiled down: (§1)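 Per-plate normalisation used 0.1 % DMSO and a positive kill control. Breast cancer cell lines (20 µl suspension) were seeded into 384-well plates containing compound at 5 concentrations in 10-fold steps across a compound-specific 10,000-fold range, incubated for 72 h, and read first for CellTox Green fluorescence (485/520 nm), then for CellTiter-Glo luminescence. EC50 was fitted from the dose-response curves and censored at the top concentration.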

Experiment [2] has as its system CAL-85-1. The method, boiled down:
as §1

Experiment [3] relates to CAL-51. The essentials:
as §1

In experiment [4] the test system is HDQ-P1. The essentials: as §1
The test system of experiment [5] is MDA-MB-231. The essentials: as §1
Experiment [6] concerns SK-BR-3. The method, boiled down: as §1
For experiment [7], the system named is Hs578T. The essentials: as §1
Experiment [8] relates to MDA-MB-453. The essentials:
as §1

Experiment [9] has as its system BT-474. The method, boiled down:
as §1

The test system of experiment [10] is MFM-223. The essentials:
as §1

For experiment [11], the system named is MCF-10A. The essentials: as §1
The subject of experiment [12] is HCC1599. The essentials: as §1
Experiment [13] deals with HCC1937. The method, boiled down:
as §1

The test system of experiment [14] is MDA-MB-436. The method, boiled down: as §1
Experiment [15] deals with BT-549. The method, boiled down: as §1
Experiment [16] has as its system CAL-148. The method, boiled down:
as §1

The subject of experiment [17] is DU-4475. The method, boiled down:
as §1

Experiment [18] has as its system HCC1143. The method, boiled down: as §1

For `CCOC(=O)CCNc1cc(N2CCc3ccccc3CC2)nc(-c2ccccn2)n1` [GSK-J4], the “EC50, CellTiter-Glo” value in experiment [1] came out at 12100 nM; in experiment [2] it was 5180 nM; in [3], 1340 nM; in [4], 11700 nM; in experiment [5], 6150 nM; in [6], 11600 nM. The “EC50, CellTiter-Glo” value was determined as 12200 nM in experiment [7]; 2960 nM in experiment [8]; 9140 nM in [9]; 7940 nM in experiment [10]; 9270 nM in experiment [11]; 9370 nM in experiment [12]. Further, the “EC50, CellTiter-Glo” value in experiment [13] stood at 8340 nM; in experiment [14] it was 4330 nM; in [15], 1000 nM; in experiment [16], 3440 nM; in experiment [17], 7170 nM; in experiment [18] it was 8690 nM.
On to `O=C(Nc1ccncc1)C(=O)c1cn(Cc2ccc(Cl)cc2)c2ccccc12` [Indibulin], for which the “EC50, CellTiter-Glo” value was determined as 408 nM in [1]; 169 nM in experiment [2]; 165 nM in experiment [3]; 523 nM in [4]; 1040 nM in [5]; 355 nM in experiment [6]. In addition, the “EC50, CellTiter-Glo” value in experiment [7] was 482 nM; in [8], 164 nM; in [9] it was 282 nM; in [10], 280 nM; in experiment [12], 129 nM; in [13], 245 nM. In addition, the “EC50, CellTiter-Glo” value was 203 nM in [14], 185 nM in experiment [15], 3810 nM in experiment [17] and 754 nM in [18].
For the molecule `COCC[n+]1c2c(n(Cc3cnccn3)c1C)C(=O)c1ccccc1C2=O` [YM155], the “EC50, CellTiter-Glo” value was 3.32 nM in experiment [1]; 5.5 nM in experiment [2]; 16.6 nM in [3]; 17.3 nM in [4]; 8.02 nM in experiment [5]; 16.8 nM in experiment [6]. Also, the “EC50, CellTiter-Glo” value in [7] amounted to 212 nM; in [8] it was 25.2 nM; in experiment [9] it was 4.16 nM; in experiment [10], 27.2 nM; in experiment [11] it was 27.1 nM; in experiment [12], 7.29 nM. Further, the “EC50, CellTiter-Glo” value in experiment [13] came to 11.2 nM; in experiment [14] it was 3.9 nM; in experiment [15] it was 65.5 nM; in experiment [16], 19.9 nM; in experiment [17], 57.8 nM; in [18] it was 11.4 nM.
As for `O=C(/C=C/c1cccc(S(=O)(=O)Nc2ccccc2)c1)NO` [Belinostat], the “EC50, CellTiter-Glo” value was found to be 634 nM in [1]; 738 nM in experiment [2]; 29.2 nM in experiment [3]; 2830 nM in experiment [4]; 564 nM in [5]; 229 nM in [6]. The “EC50, CellTiter-Glo” value in experiment [7] is 989 nM; in experiment [8] it was 158 nM; in [9], 458 nM; in [10] it was 264 nM; in experiment [11], 1150 nM; in [12], 826 nM. Besides, the “EC50, CellTiter-Glo” value in experiment [13] came out at 2180 nM; in experiment [14], 1250 nM; in experiment [15] it was 1010 nM; in experiment [16] it was 370 nM; in experiment [17], 358 nM; in experiment [18] it was 803 nM.
Take `Cc1[nH]c2ccccc2c1CCNCc1ccc(/C=C/C(=O)NO)cc1` [Panobinostat]: the “EC50, CellTiter-Glo” value in experiment [1] worked out at 62.3 nM; in [2] it was 33.4 nM; in experiment [3] it was 22.6 nM; in [4], 115 nM; in experiment [5], 24.3 nM; in experiment [6] it was 13.7 nM. Also, the “EC50, CellTiter-Glo” value amounted to 43.2 nM in experiment [7]; 9.95 nM in [8]; 31.8 nM in [9]; 27.6 nM in [10]; 89.1 nM in experiment [11]; 46.4 nM in experiment [12]. Also, the “EC50, CellTiter-Glo” value in [13] turned out to be 168 nM; in experiment [14], 58.2 nM; in [15], 81.3 nM; in [16], 21 nM; in experiment [17], 18.3 nM; in experiment [18], 33.5 nM.
For the molecule `COc1cc(O)c2c(c1)/C=C/C[C@H](O)[C@H](O)C(=O)/C=C\C[C@H](C)OC2=O` [(5Z)-7-Oxozeaenol], the “EC50, CellTiter-Glo” value in experiment [1] worked out at 2450 nM; in experiment [2] it was 605 nM; in experiment [3], 3770 nM; in experiment [4] it was 2330 nM; in experiment [5] it was 1430 nM; in experiment [6], 6390 nM. The “EC50, CellTiter-Glo” value in [7] amounted to 3250 nM; in experiment [8] it was 8350 nM; in [9], 2160 nM; in experiment [10], 2170 nM; in experiment [11] it was 532 nM; in experiment [12], 5830 nM. The “EC50, CellTiter-Glo” value in [13] worked out at 4060 nM; in experiment [14], 1560 nM; in experiment [15], 548 nM; in experiment [16], 1460 nM; in [17] it was 173 nM; in experiment [18], 7820 nM.
`CNC(=O)c1cccc(-c2ccc3c(N4CCOC[C@@H]4C)nc(N4CCOC[C@@H]4C)nc3n2)c1` [AZD2014]: the “EC50, CellTiter-Glo” value in [1] turned out to be 224 nM; in experiment [2], 290 nM; in experiment [3] it was 131 nM; in experiment [4], 120 nM; in experiment [5], 316 nM; in experiment [6] it was 116 nM. For the same molecule, the “EC50, CellTiter-Glo” value in experiment [7] amounted to 459 nM; in experiment [8] it was 195 nM; in experiment [9], 286 nM; in experiment [10] it was 123 nM; in experiment [11] it was 493 nM; in [12] it was 3620 nM. Further, the “EC50, CellTiter-Glo” value amounted to 285 nM in experiment [13]; 121 nM in experiment [14]; 228 nM in [15]; 395 nM in [16]; 1400 nM in [17]; 366 nM in [18].
